Patent US12060385B2, “Compounds for RNA capping and uses thereof” (GUANGZHOU HENOVCOM BIOSCIENCE CO., LTD., priority 2022, dated 2024)

What follows are compounds tested against T7 RNA Polymerase (Escherichia phage T7, UniProt P00573). Conditions: 20 μL transcription system, Cap1 Analog 4 mM, 37° C. 2 to 3 hours.
Assay type: biochemical
Procedure: • 1) A plasmid was linearized and the DNA template was purified. • 2) mRNA was synthesized in vitro with 51 types of capping structures of the present disclosure, or without any cap analogues. CleanCap®AG (3′OMe) (Trilink, N-7413) was applied as positive control group, uncapped mRNA was negative control group, and DNAase/RNase-Free water was a blank control group.
The system was incubated for 2 to 3 hours at 37° C. and digested by TURBO DNase for 15 min LiCl was used to precipitate mRNA for at least 30 min, or overnight, mRNA precipitates were then washed with 75% ethanol. After ethanol was quickly volatilized, mRNA was re-solubilized with RNase-Free water. • 3) The transcribed products were purified and the transcription yields were calculated.

Sequence of T7 RNA Polymerase (P00573 whole entry): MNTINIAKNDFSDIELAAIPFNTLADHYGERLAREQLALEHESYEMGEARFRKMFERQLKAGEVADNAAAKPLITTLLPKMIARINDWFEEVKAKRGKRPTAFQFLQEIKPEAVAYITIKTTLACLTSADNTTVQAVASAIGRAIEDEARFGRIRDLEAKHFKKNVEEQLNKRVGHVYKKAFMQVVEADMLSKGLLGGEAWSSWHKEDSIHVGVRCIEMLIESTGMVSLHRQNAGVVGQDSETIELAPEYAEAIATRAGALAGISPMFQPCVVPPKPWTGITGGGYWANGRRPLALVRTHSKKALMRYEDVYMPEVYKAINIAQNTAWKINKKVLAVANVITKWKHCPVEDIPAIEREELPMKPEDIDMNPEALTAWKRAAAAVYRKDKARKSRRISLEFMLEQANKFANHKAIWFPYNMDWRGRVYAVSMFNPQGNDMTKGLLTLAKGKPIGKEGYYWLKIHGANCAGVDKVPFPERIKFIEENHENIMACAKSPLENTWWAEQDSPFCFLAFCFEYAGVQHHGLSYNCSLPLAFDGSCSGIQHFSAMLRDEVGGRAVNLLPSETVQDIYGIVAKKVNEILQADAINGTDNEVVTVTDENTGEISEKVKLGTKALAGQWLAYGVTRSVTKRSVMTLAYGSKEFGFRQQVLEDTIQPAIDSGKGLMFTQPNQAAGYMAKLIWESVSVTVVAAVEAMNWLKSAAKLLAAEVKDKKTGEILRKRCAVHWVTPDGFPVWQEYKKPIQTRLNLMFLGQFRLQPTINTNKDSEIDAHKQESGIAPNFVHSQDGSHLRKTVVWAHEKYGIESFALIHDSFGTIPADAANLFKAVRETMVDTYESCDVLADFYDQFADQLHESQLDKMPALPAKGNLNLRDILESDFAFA

Compound | Final product mass obtained from the 20 μL of mRNA transcription system [µg]
CO[C@@H]1[C@H](CNC(C)=O)[C@@H](COP(=O)(O)OP(=O)(O)OP(=O)(O)OC[C@H]2O[C@@H](n3cnc4c(N)ncnc43)[C@H](OC)[C@@H]2OP(=O)(O)OC[C@H]2O[C@@H](n3cnc4c(=O)[nH]c(N)nc43)[C@H](O)[C@@H]2O)O[C@H]1n1c[n+](C)c2c(=O)[nH]c(N)nc21 [Compound 641] | 89
CNC(=O)C[C@H]1[C@@H](O)[C@H](n2c[n+](C)c3c(=O)[nH]c(N)nc32)O[C@@H]1COP(=O)(O)OP(=O)(O)OP(=O)(O)OC[C@H]1O[C@@H](n2cnc3c(N)ncnc32)[C@H](OC)[C@@H]1OP(=O)(O)OC[C@H]1O[C@@H](n2ccc(=O)[nH]c2=O)[C@H](O)[C@@H]1O [Compound 394] | 107
COCCNC(=O)C[C@@H]1[C@@H](COP(=O)(O)OP(=O)(O)OP(=O)(O)OC[C@H]2O[C@@H](n3cnc4c(N)ncnc43)[C@H](OC)[C@@H]2OP(=O)([O-])OC[C@H]2O[C@@H](n3cnc4c(=O)[nH]c(N)nc43)[C@H](O)[C@@H]2O)OC(n2c[n+](C)c3c(=O)[nH]c(N)nc32)[C@@H]1O (some centres unmarked) [Compound 58] | 115
CCCCOC[C@H]1[C@@H](O)[C@H](n2c[n+](C)c3c(=O)[nH]c(N)nc32)O[C@@H]1COP(=O)(O)OP(=O)(O)OP(=O)(O)OC[C@H]1O[C@@H](n2cnc3c(N)ncnc32)[C@H](OC)[C@@H]1OP(=O)(O)OC[C@H]1O[C@@H](n2cnc3c(=O)[nH]c(N)nc32)[C@H](O)[C@@H]1O [Compound 151] | 110
CCCOCC[C@H]1[C@@H](O)[C@H](n2c[n+](C)c3c(=O)[nH]c(N)nc32)O[C@@H]1COP(=O)(O)OP(=O)(O)OP(=O)(O)OC[C@H]1O[C@@H](n2cnc3c(N)ncnc32)[C@H](OC)[C@@H]1OP(=O)(O)OC[C@H]1O[C@@H](n2cnc3c(=O)[nH]c(N)nc32)[C@H](O)[C@@H]1O [Compound 163] | 102
COC[C@H]1[C@@H](O)[C@H](n2c[n+](C)c3c(=O)[nH]c(N)nc32)O[C@@H]1COP(=O)(O)OP(=O)(O)OP(=O)(O)OP(=O)(O)OC[C@H]1O[C@@H](n2cnc3c(N)ncnc32)[C@H](OC)[C@@H]1OP(=O)(O)OC[C@H]1O[C@@H](n2cnc3c(=O)[nH]c(N)nc32)[C@H](O)[C@@H]1O [Compound 189] | 92
COCC[C@H]1[C@@H](O)[C@H](n2c[n+](C)c3c(=O)[nH]c(N)nc32)O[C@@H]1COP(=O)(O)OP(=O)(O)OP(=O)(O)OC[C@H]1O[C@@H](n2cnc3c(N)ncnc32)[C@H](OC)[C@@H]1OP(=O)([O-])OC[C@H]1O[C@@H](n2cnc3c(=O)[nH]c(N)nc32)[C@H](O)[C@@H]1O [Compound 5] | 95
COC[C@H]1[C@@H](O)[C@H](n2c[n+](Cc3ccccc3)c3c(=O)[nH]c(N)nc32)O[C@@H]1COP(=O)(O)OP(=O)(O)OP(=O)(O)OC[C@H]1O[C@@H](n2cnc3c(N)ncnc32)[C@H](OC)[C@@H]1OP(=O)([O-])OC[C@H]1O[C@@H](n2cnc3c(=O)[nH]c(N)nc32)[C@H](O)[C@@H]1O [Compound 215] | 95
CO[C@@H]1[C@H](OP(=O)([O-])OC[C@H]2O[C@@H](n3cnc4c(=O)[nH]c(N)nc43)[C@H](O)[C@@H]2O)[C@@H](COP(=O)(O)OP(=O)(O)OP(=O)(O)OC[C@H]2O[C@@H](n3c[n+](C)c4c(=O)[nH]c(N)nc43)[C@H](O)[C@@H]2CNC=O)O[C@H]1n1cnc2c(N)ncnc21 [Compound 299] | 105
COC[C@@H]1[C@@H](COP(=O)(O)OP(=O)([O-])OP(=O)([O-])OC[C@H]2O[C@@H](n3cnc4c(N)ncnc43)[C@H](OC)[C@@H]2NP(=O)(O)OC[C@H]2O[C@@H](n3cnc4c(=O)[nH]c(N)nc43)[C@H](O)[C@@H]2O)OC(n2c[n+](C)c3c(=O)[nH]c(N)nc32)[C@@H]1O.[Na+] (some centres unmarked) [Compound 195] | 69
CO[C@@H]1[C@H](OP(=O)([O-])OC[C@H]2O[C@@H](n3cnc4c(=O)[nH]c(N)nc43)[C@H](O)[C@@H]2O)[C@@H](COP(=O)(O)OP(=O)(O)OP(=O)(O)OC[C@H]2O[C@@H](n3c[n+](C)c4c(=O)[nH]c(N)nc43)[C@H](O)[C@@H]2CCO)O[C@H]1n1cnc2c(N)ncnc21 [Compound 153] | 65
CNc1ncnc2c1ncn2[C@@H]1O[C@H](COP(=O)(O)OP(=O)(O)OP(=O)(O)OC[C@H]2O[C@@H](n3c[n+](C)c4c(=O)[nH]c(N)nc43)[C@H](O)[C@@H]2COC)[C@@H](OP(=O)([O-])OC[C@H]2O[C@@H](n3cnc4c(=O)[nH]c(N)nc43)[C@H](O)[C@@H]2O)[C@H]1OC [Compound 197] | 121
CO[C@@H]1[C@H](OP(=O)(O)OC[C@H]2O[C@@H](n3cnc4c(=O)[nH]c(N)nc43)[C@H](O)[C@@H]2O)[C@@H](COP(=O)(O)OP(=O)(O)OP(=O)(O)OC[C@H]2O[C@@H](n3c[n+](C)c4c(=O)[nH]c(N)nc43)[C@H](O)[C@@H]2CO)O[C@H]1n1cnc2c(N)ncnc21 [Compound 137] | 116
CO[C@@H]1[C@H](OP(=O)(O)OC[C@H]2O[C@@H](n3cnc4c(=O)[nH]c(N)nc43)[C@H](O)[C@@H]2O)[C@@H](COP(=O)(O)OP(=O)(O)OP(=O)(O)OP(=O)(O)OC[C@H]2O[C@@H](n3c[n+](C)c4c(=O)[nH]c(N)nc43)[C@H](O)[C@@H]2CC(=O)N(C)C)O[C@H]1n1cnc2c(N)ncnc21 [Compound 437] | 114
CCCCC(=O)NC[C@H]1[C@@H](O)[C@H](n2c[n+](C)c3c(=O)[nH]c(N)nc32)O[C@@H]1COP(=O)(O)OP(=O)(O)OP(=O)(O)OC[C@H]1O[C@@H](n2cnc3c(N)ncnc32)[C@H](OC)[C@@H]1OP(=O)(O)OC[C@H]1O[C@@H](n2cnc3c(=O)[nH]c(N)nc32)[C@H](O)[C@@H]1O [Compound 305] | 92
C#CCOCC[C@H]1[C@@H](O)[C@H](n2c[n+](C)c3c(=O)[nH]c(N)nc32)O[C@@H]1COP(=O)(O)OP(=O)(O)OP(=O)(O)OC[C@H]1O[C@@H](n2cnc3c(N)ncnc32)[C@H](OC)[C@@H]1OP(=O)(O)OC[C@H]1O[C@@H](n2cnc3c(=O)[nH]c(N)nc32)[C@H](O)[C@@H]1O [Compound 51] | 114
COC(=O)NC[C@H]1[C@@H](O)[C@H](n2c[n+](C)c3c(=O)[nH]c(N)nc32)O[C@@H]1COP(=O)(O)OP(=O)(O)OP(=O)(O)OC[C@H]1O[C@@H](n2cnc3c(N)ncnc32)[C@H](OC)[C@@H]1OP(=O)(O)OC[C@H]1O[C@@H](n2cnc3c(=O)[nH]c(N)nc32)[C@H](O)[C@@H]1O [Compound 323] | 114
CNC(=O)C[C@H]1[C@@H](OC)[C@H](n2c[n+](C)c3c(=O)[nH]c(N)nc32)O[C@@H]1COP(=O)(O)OP(=O)(O)OP(=O)(O)OC[C@H]1O[C@@H](n2cnc3c(N)ncnc32)[C@H](OC)[C@@H]1OP(=O)(O)OC[C@H]1O[C@@H](n2cnc3c(=O)[nH]c(N)nc32)[C@H](O)[C@@H]1O [Compound 645] | 116
CCO[C@@H]1[C@H](OP(=O)(O)OC[C@H]2O[C@@H](n3cnc4c(=O)[nH]c(N)nc43)[C@H](O)[C@@H]2O)[C@@H](COP(=O)(O)OP(=O)(O)OP(=O)(O)OCC2O[C@@H](n3c[n+](C)c4c(=O)[nH]c(N)nc43)[C@H](O)[C@@H]2COC)O[C@H]1n1cnc2c(N)ncnc21 (some centres unmarked) [Compound 203] | 96
CO[C@@H]1[C@H](OP(=O)([O-])OC[C@H]2O[C@@H](n3cnc4c(=O)[nH]c(N)nc43)[C@H](O)[C@@H]2O)[C@@H](COP(=O)(O)OP(=O)(O)OP(=O)(O)OC[C@H]2O[C@@H](n3c[n+](C)c4c(=O)[nH]c(N)nc43)[C@H](O)[C@@H]2CNS(C)(=O)=O)O[C@H]1n1cnc2c(N)ncnc21 [Compound 311] | 88
CO[C@@H]1[C@H](OP(=O)(O)OC[C@H]2O[C@@H](n3cnc4c(=O)[nH]c(N)nc43)[C@H](O)[C@@H]2O)[C@@H](COP(=O)(O)CP(=O)(O)OP(=O)(O)OC[C@H]2O[C@@H](n3c[n+](C)c4c(=O)[nH]c(N)nc43)[C@H](O)[C@@H]2CNC(C)=O)O[C@H]1n1cnc2c(N)ncnc21 [Compound 329] | 110
CO[C@@H]1[C@H](OP(=O)([O-])OC[C@H]2O[C@@H](n3cnc4c(=O)[nH]c(N)nc43)[C@H](O)[C@@H]2O)[C@@H](COP(=O)(O)OP(=O)(O)OP(=O)(O)OC[C@H]2O[C@@H](n3c[n+](C)c4c(=O)[nH]c(N)nc43)[C@H](O)[C@@H]2CN=[N+]=[N-])O[C@H]1n1cnc2c(N)ncnc21 [Compound 635] | 118
COC[C@H]1[C@@H](O)[C@H](n2c[n+](C)c3c(=O)[nH]c(N)nc32)O[C@@H]1COP(=O)(O)OP(=O)(O)OP(=O)(O)OC[C@H]1O[C@@H](n2cnc3c(N)ncnc32)[C@H](OC)[C@@H]1OCOC[C@H]1O[C@@H](n2cnc3c(=O)[nH]c(N)nc32)[C@H](O)[C@@H]1O [Compound 199] | 95
